Source: patent US20230172984A1, “CLEARANCE OF SENESCENT CELLS BY ACTIVATION OF iNKT CELLS” (THE REGENTS OF THE UNIVERSITY OF CALIFORNIA, priority 2020, published 2023)

Columns and labels:
Assay type in all cases: in vivo, mouse
[1] = Bleomycin lung injury survival study; settings: bleomycin 4 U/kg intratracheal, α-GalCer or vehicle at day 5, vs vehicle-injected mice; FIG. 4E
Text: Bleomycin lung injury. For measurement of lung collagen, 3 U/kg Bleomycin was instilled intratracheally, with injection of α-GalCer or vehicle at day 10, followed by lung harvest for hydroxyproline assay at 20 days. For the survival study, 4 U/kg Bleomycin was instilled intratracheally, with injection of α-GalCer or vehicle at day 5.

[2] = test system: lung parenchymal iNKT cells; experiment: Bleomycin-induced lung injury model, flow cytometry of lung iNKT cells; settings: bleomycin-injured mice, GalCer day 10, harvest day 14; FIG. 4C
Procedure: MATERIALS AND METHODS. Mouse husbandry. All procedures involving mice were performed according to the IACUC standards following ethics approval by the animal committee at the University of California, San Francisco. Male C57BL6/J on chow or HFD fed mice. HFD mice were fed a high-fat diet (60% kcal from fat) from 6 weeks until 22 weeks of age. All experiments on HFD mice were performed at 22-24 weeks total age (16-18 weeks on HFD). Age-matched male C57BL6/J mice on standard rodent chow diet were used as controls. For the lung injury model, 10-week-old male C57BL/6J mice were used. The animals were divided into three groups: the control group, the injured group, and the α-GalCer treated group. The animals in the control group received vehicle only (i.p.) on day 10. The injured group animals received bleomycin (3 U/kg) via the intratracheal route at the start of the experiment (day 0). The animals in the α-GalCer treated groups received bleomycin (3 U/kg) on day 0, and i.p. injection of α-GalCer (2 μg/mouse) on day 10. […]
Flow cytometry of iNKT cells. eWAT SVF cells were stained with PBS57 (α-GalCer-analog) loaded onto CD1d-PE tetramers prepared by the NIH Tetramer Core and anti-CD3-APC. […] For lung, 1×10^6 cells from each sample were used to quantify iNKT cells. […]

[3] = Metabolic measurements in HFD-fed mice (fasting glucose, GTT, HOMA-IR); settings: 10 days after α-GalCer injection
Procedure: α-GalCer activation of iNKT cells. iNKT cells were activated in vivo using α-GalCer as described in Peralbo et al., 2006. Decreased frequency and proliferative response of invariant Vα24Vβ11 natural killer T (iNKT) cells in healthy elderly. Biogerontology 7, 483-492. Briefly, HFD mice were i.p. injected with 200 μl of a 10 μg/ml α-GalCer solution (2 μg total) made up in 5.6% Sucrose, 5% Tween-20. On day 3 or 4 post-injection, mice were euthanized for various experiments, as indicated.
Metabolic measurements. Seventeen male HFD-fed C57BL6J mice were divided into the vehicle (n=8) and the α-GalCer treated group (n=9). Age-matched male C57BL6/J mice on a standard rodent chow diet were used as controls (n=8). A glucose tolerance test was performed 10 days after α-GalCer injection. Mice were fasted overnight (14 h) before being injecting 2 g/kg glucose intraperitoneally. Blood glucose was measured at 0, 15, 30, 60, and 120 min after glucose injection using a glucometer.

CCCCCCCCCCCCCCCCCCCCCCCCCC(=O)N[C@@H](CO[C@H]1O[C@H](CO)[C@H](O)[C@H](O)[C@H]1O)[C@H](O)[C@H](O)CCCCCCCCCCCCCC [GalCer, alpha-Galactosylceramide]
mortality (Kaplan Meier survival) [1]: significantly reduced | lung parenchymal iNKT cells (proportion of T cells) [2]: induced expansion of lung parenchymal iNKT cells | glucose tolerance (GTT) ([3]; 2 g/kg glucose i.p. after 14 h fast, vs vehicle): improved glucose tolerance | insulin sensitivity (HOMA-IR) ([3]; vs vehicle): improved insulin sensitivity | fasting glucose ([3]; vs vehicle-treated HFD-fed mice): significantly lower fasting glucose
